Assay results published in EP2910242B1, “DURABLE […] SEBACOYL DI[…]-PLGA CONTROLLED RELEASE FORMULATION” (Hu, Oliver Yaopu, priority 2012, dated 2014).
Converted amounts (≈) assume the structure as drawn. Counter-ions that a name gives are not always drawn. Like-named read-outs stand apart in the source and are kept apart here.

How the values were obtained:
[1] = drug saturated solubility in water
[2] = subcutaneous injection of PLGA microspheres containing the drug; 50 mg/rabbit; cited from earlier work
[3] = oil-in-water coefficient (logP)

## Oc1ccc2c3c1O[C@H]1[C@@H](O)CC[C@@]4(O)[C@@H](C2)N(CC2CCC2)CC[C@]314 [Nalbuphine HCl]
[1]; water
  solubility: > 25000 µg/mL

## CCCCCCCCCC(=O)Oc1ccc2c3c1O[C@H]1[C@@H](O)CC[C@@]4(O)[C@@H](C2)N(CC2CCC2)CC[C@]314 [Nalbuphine decanoate]
[1]
  solubility: 0.67 µg/mL (≈ 1.31 µM)
[2]
  time the effective serum concentration lasted: 4 days
[3]
  logP: 3.3

## CCCCCCC(=O)Oc1ccc2c3c1O[C@H]1[C@@H](O)CC[C@@]4(O)[C@@H](C2)N(CC2CCC2)CC[C@]314 [Nalbuphine enanthate]
[1]
  solubility: 3 µg/mL (≈ 6.39 µM)
[3]
  logP: 1.94

## CC(C)(C)C(=O)Oc1ccc2c3c1O[C@H]1[C@@H](O)CC[C@@]4(O)[C@@H](C2)N(CC2CCC2)CC[C@]314 [Nalbuphine pivalate]
[1]
  solubility: 33.7 µg/mL (≈ 76.3 µM)
[2]
  time the effective serum concentration lasted: 4 days
[3]
  logP: 1.42

## CCC(=O)Oc1ccc2c3c1O[C@H]1[C@@H](O)CC[C@@]4(O)[C@@H](C2)N(CC2CCC2)CC[C@]314 [Nalbuphine propionate]
[1]
  solubility: 44.7 µg/mL (≈ 108 µM)
[2]
  time the effective serum concentration lasted: 4 days
[3]
  logP: 1.05

## O=C(CCCCCCCCC(=O)Oc1ccc2c3c1O[C@H]1[C@@H](O)CC[C@@]4(O)[C@@H](C2)N(CC2CCC2)CC[C@]314)Oc1ccc2c3c1O[C@H]1[C@@H](O)CC[C@@]4(O)[C@@H](C2)N(CC2CCC2)CC[C@]314 [Sebacoyl dinalbuphine ester]
[1]
  solubility: < 0.25 µg/mL
[3]
  logP: 3.15
